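Tested at 5 concentrations; 48 h exposure; 96-well plates; endpoints linearly interpolated, else capped at highest concentration. GI50: concentration for 50% inhibition of growth. The concentration for full growth arrest is given as TGI.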
How the values were obtained:
Assay in all cases: growth of human tumour cells (NCI), 48 h
MDA-MB-435 = test system: MDA-MB-435
NCI/ADR-RES ovarian = test system: NCI/ADR-RES ovarian
U251 CNS = test system: U251 CNS
UACC-62 melanoma = test system: UACC-62 melanoma
786-0 renal = test system: 786-0 renal
CCRF-CEM leukemia = test system: CCRF-CEM leukemia
MOLT-4 leukemia = test system: MOLT-4 leukemia
LOX IMVI melanoma = test system: LOX IMVI melanoma
SK-MEL-2 melanoma = test system: SK-MEL-2 melanoma
HCT-116 colon = test system: HCT-116 colon
KM12 colon = test system: KM12 colon
HCC-2998 colon = test system: HCC-2998 colon
A549 NSCLC = test system: A549 NSCLC
SW-620 colon = test system: SW-620 colon
TK-10 renal = test system: TK-10 renal
BT-549 breast = test system: BT-549 breast
A498 renal = test system: A498 renal
HOP-92 NSCLC = test system: HOP-92 NSCLC
NCI-H226 lung = test system: NCI-H226 lung
NCI-H460 lung = test system: NCI-H460 lung
RPMI-8226 leukemia = test system: RPMI-8226 leukemia
MDA-MB-231 breast = test system: MDA-MB-231 breast
SK-MEL-5 melanoma = test system: SK-MEL-5 melanoma
K-562 leukemia = test system: K-562 leukemia
HCT-15 colon = test system: HCT-15 colon
SNB-75 CNS = test system: SNB-75 CNS
HS 578T breast = test system: HS 578T breast
SNB-19 CNS = test system: SNB-19 CNS
ACHN renal = test system: ACHN renal
RXF 393 renal = test system: RXF 393 renal
SF-539 CNS = test system: SF-539 CNS
IGROV1 ovarian = test system: IGROV1 ovarian
HOP-62 NSCLC = test system: HOP-62 NSCLC
UO-31 renal = test system: UO-31 renal
DU-145 prostate = test system: DU-145 prostate
PC-3 prostate = test system: PC-3 prostate
MCF7 breast = test system: MCF7 breast
OVCAR-8 ovarian = test system: OVCAR-8 ovarian
EKVX NSCLC = test system: EKVX NSCLC
SN12C renal = test system: SN12C renal
SF-295 CNS = test system: SF-295 CNS
OVCAR-5 ovarian = test system: OVCAR-5 ovarian
NCI-H522 lung = test system: NCI-H522 lung
HT29 colon = test system: HT29 colon
OVCAR-4 ovarian = test system: OVCAR-4 ovarian
SK-OV-3 ovarian = test system: SK-OV-3 ovarian
COLO 205 colon = test system: COLO 205 colon
CAKI-1 renal = test system: CAKI-1 renal
T-47D breast = test system: T-47D breast
OVCAR-3 ovarian = test system: OVCAR-3 ovarian
SF-268 CNS = test system: SF-268 CNS
SK-MEL-28 melanoma = test system: SK-MEL-28 melanoma
NCI-H23 lung = test system: NCI-H23 lung
UACC-257 melanoma = test system: UACC-257 melanoma
MALME-3M melanoma = test system: MALME-3M melanoma
HL-60(TB) leukemia = test system: HL-60(TB) leukemia
M14 melanoma = test system: M14 melanoma

## C=C1C(=O)O[C@@H]2C1C[C@@H](O)C(=C)CC/C=C(\C)CCC[C@H](C)[C@H]2OC(C)=O (some centres undefined)
MDA-MB-435
  GI50: 12.9 µM
  TGI: 26.7 µM
NCI/ADR-RES ovarian
  GI50: 3.38 µM
  TGI: 14.2 µM
U251 CNS
  GI50: 5.83 µM
  TGI: 23.3 µM
UACC-62 melanoma
  GI50: 7.45 µM
  TGI: 21.7 µM
786-0 renal
  GI50: 4.84 µM
  TGI: 16.3 µM
CCRF-CEM leukemia
  GI50: 2.34 µM
  TGI: 5.05 µM
MOLT-4 leukemia
  GI50: 2.54 µM
  TGI: 5.9 µM
LOX IMVI melanoma
  GI50: 2.14 µM
  TGI: 6.07 µM
SK-MEL-2 melanoma
  GI50: 12.9 µM
  TGI: 31.1 µM
HCT-116 colon
  GI50: 1.4 µM
  TGI: 3.06 µM
KM12 colon
  GI50: 11.4 µM
  TGI: 26 µM
HCC-2998 colon
  GI50: 15.4 µM
  TGI: 29.2 µM
A549 NSCLC
  GI50: 22.9 µM
  TGI: 48.8 µM
SW-620 colon
  GI50: 3.81 µM
  TGI: 13.6 µM
TK-10 renal
  GI50: 2.11 µM
  TGI: 5.57 µM
BT-549 breast
  GI50: 2.73 µM
  TGI: 7.46 µM
A498 renal
  GI50: 15.3 µM
  TGI: 29.4 µM
HOP-92 NSCLC
  GI50: 1.09 µM
  TGI: 3.76 µM
NCI-H226 lung
  GI50: 3.37 µM
  TGI: 12.8 µM
NCI-H460 lung
  GI50: 18.2 µM
  TGI: 41.4 µM
RPMI-8226 leukemia
  GI50: 2.52 µM
  TGI: 6.61 µM
MDA-MB-231 breast
  GI50: 4.07 µM
  TGI: 18.6 µM
SK-MEL-5 melanoma
  GI50: 2.76 µM
  TGI: 10.8 µM
K-562 leukemia
  GI50: 2.8 µM
  TGI: 7.76 µM
HCT-15 colon
  GI50: 3.04 µM
  TGI: 14 µM
SNB-75 CNS
  GI50: 13.9 µM
  TGI: 33.6 µM
HS 578T breast
  GI50: 10.3 µM
  TGI: 27.7 µM
SNB-19 CNS
  GI50: 27.1 µM
  TGI: > 100 µM
ACHN renal
  GI50: 1.69 µM
  TGI: 3.85 µM
RXF 393 renal
  GI50: 4.15 µM
  TGI: 20.9 µM
SF-539 CNS
  GI50: 12.8 µM
  TGI: 26.3 µM
IGROV1 ovarian
  GI50: 5.17 µM
  TGI: 19.5 µM
HOP-62 NSCLC
  GI50: 15.4 µM
  TGI: 30.7 µM
UO-31 renal
  GI50: 5.18 µM
  TGI: 18.4 µM
DU-145 prostate
  GI50: 11.9 µM
  TGI: 25.3 µM
PC-3 prostate
  GI50: 6.1 µM
  TGI: 22.9 µM
MCF7 breast
  GI50: 3.04 µM
  TGI: 18.5 µM
OVCAR-8 ovarian
  GI50: 15.4 µM
  TGI: 45.4 µM
EKVX NSCLC
  GI50: 12 µM
  TGI: 25.6 µM
SN12C renal
  GI50: 3.5 µM
  TGI: 15.3 µM
SF-295 CNS
  GI50: 17.1 µM
  TGI: 31.9 µM
OVCAR-5 ovarian
  GI50: 10.3 µM
  TGI: 22.4 µM
NCI-H522 lung
  GI50: 3.55 µM
  TGI: 12.7 µM
HT29 colon
  GI50: 4.17 µM
  TGI: > 100 µM
OVCAR-4 ovarian
  GI50: 4.65 µM
  TGI: 28 µM
SK-OV-3 ovarian
  GI50: 14.8 µM
  TGI: 32.5 µM
COLO 205 colon
  GI50: 2.93 µM
  TGI: > 100 µM
CAKI-1 renal
  GI50: 4.06 µM
  TGI: 14.7 µM
T-47D breast
  GI50: 6.46 µM
  TGI: 42.3 µM
OVCAR-3 ovarian
  GI50: 3.38 µM
  TGI: 12.6 µM
SF-268 CNS
  GI50: 11 µM
  TGI: 30.5 µM
SK-MEL-28 melanoma
  GI50: 4.78 µM
  TGI: 23 µM
NCI-H23 lung
  GI50: 3.71 µM
  TGI: 15 µM
UACC-257 melanoma
  GI50: 16 µM
  TGI: 35.9 µM

## CCS(=O)(=O)Nc1cccc(Nc2c3cccc(C)c3nc3c(C)cccc23)c1OC
MDA-MB-435
  GI50: 4.05 µM
  TGI: > 86 µM
NCI/ADR-RES ovarian
  GI50: 3.23 µM
  TGI: 60.2 µM
U251 CNS
  GI50: 0.404 µM
  TGI: 19.8 µM
UACC-62 melanoma
  GI50: 0.635 µM
  TGI: > 100 µM
786-0 renal
  GI50: 0.485 µM
  TGI: 10.4 µM
CCRF-CEM leukemia
  GI50: 0.264 µM
  TGI: > 100 µM
MOLT-4 leukemia
  GI50: 0.166 µM
  TGI: 4.23 µM
LOX IMVI melanoma
  GI50: 0.273 µM
  TGI: > 91.5 µM
SK-MEL-2 melanoma
  GI50: 10.5 µM
  TGI: 59.8 µM
HCT-116 colon
  GI50: 0.793 µM
  TGI: > 51.9 µM
KM12 colon
  GI50: 2.26 µM
  TGI: > 31.2 µM
HCC-2998 colon
  GI50: 2.99 µM
  TGI: > 71.1 µM
A549 NSCLC
  GI50: 0.202 µM
  TGI: 4.02 µM
MALME-3M melanoma
  GI50: 0.901 µM
  TGI: > 47.4 µM
SW-620 colon
  GI50: 0.979 µM
  TGI: > 100 µM
TK-10 renal
  GI50: 2.24 µM
  TGI: 11.5 µM
BT-549 breast
  GI50: 2.54 µM
  TGI: 25.1 µM
A498 renal
  GI50: 0.392 µM
  TGI: 6.01 µM
HOP-92 NSCLC
  GI50: 0.399 µM
  TGI: 7.4 µM
NCI-H226 lung
  GI50: 0.627 µM
  TGI: 4.76 µM
NCI-H460 lung
  GI50: 0.104 µM
  TGI: 4.6 µM
RPMI-8226 leukemia
  GI50: 0.573 µM
  TGI: 12.5 µM
MDA-MB-231 breast
  GI50: 5.2 µM
  TGI: 41.4 µM
SK-MEL-5 melanoma
  GI50: 1.1 µM
  TGI: 8.21 µM
K-562 leukemia
  GI50: 1.55 µM
  TGI: > 45.3 µM
HL-60(TB) leukemia
  GI50: 0.25 µM
HCT-15 colon
  GI50: 1.31 µM
  TGI: > 100 µM
SNB-75 CNS
  GI50: 1 µM
  TGI: 22 µM
HS 578T breast
  GI50: 5.69 µM
  TGI: 44.8 µM
SNB-19 CNS
  GI50: 0.572 µM
  TGI: > 88.3 µM
ACHN renal
  GI50: 0.326 µM
  TGI: 16.5 µM
RXF 393 renal
  GI50: 1.98 µM
  TGI: 13.2 µM
SF-539 CNS
  GI50: 0.708 µM
  TGI: 6.23 µM
IGROV1 ovarian
  GI50: 1.8 µM
  TGI: > 70.2 µM
HOP-62 NSCLC
  GI50: 0.555 µM
  TGI: > 29.3 µM
UO-31 renal
  GI50: 0.393 µM
  TGI: 26 µM
DU-145 prostate
  GI50: 0.545 µM
  TGI: 14.1 µM
PC-3 prostate
  GI50: 1.67 µM
  TGI: 19.2 µM
MCF7 breast
  GI50: 0.168 µM
  TGI: 49.5 µM
OVCAR-8 ovarian
  GI50: 1.19 µM
  TGI: 74.5 µM
SN12C renal
  GI50: 0.374 µM
  TGI: 9.84 µM
SF-295 CNS
  GI50: 0.381 µM
  TGI: 22.1 µM
OVCAR-5 ovarian
  GI50: 3.86 µM
  TGI: 41.5 µM
NCI-H522 lung
  GI50: 2.58 µM
  TGI: 19.5 µM
HT29 colon
  GI50: 1.93 µM
  TGI: 10.5 µM
M14 melanoma
  GI50: 0.435 µM
  TGI: > 100 µM
OVCAR-4 ovarian
  GI50: 9.78 µM
  TGI: > 75.8 µM
SK-OV-3 ovarian
  GI50: 1.61 µM
  TGI: 29.7 µM
COLO 205 colon
  GI50: 2.56 µM
  TGI: > 100 µM
CAKI-1 renal
  GI50: 0.347 µM
  TGI: 15.8 µM
T-47D breast
  GI50: 0.58 µM
  TGI: > 30.4 µM
OVCAR-3 ovarian
  GI50: 4.59 µM
  TGI: 25 µM
SF-268 CNS
  GI50: 0.98 µM
  TGI: > 56 µM
SK-MEL-28 melanoma
  GI50: 4.29 µM
  TGI: > 100 µM
NCI-H23 lung
  GI50: 0.653 µM
  TGI: > 100 µM
UACC-257 melanoma
  GI50: 2.46 µM
  TGI: 38.5 µM
